The results in this text go back to patent publication US12280046B2, “Melanocortin subtype-2 receptor (MC2R) antagonist for the treatment of disease” (Crinetics Pharmaceuticals, Inc., priority 2021, dated 2025).

Series [1] concerns basal and ACTH-stimulated cortisol. As to the kind of experiment: Phase 1 MAD study, basal and ACTH-stimulated cortisol. Format: in vivo, human. An excerpt: (§1) This Phase 1, first-in-human, double-blind, randomized, placebo-controlled study will evaluate the safety of Compound 1 in healthy volunteers as well as the relationship between exposure and pharmacodynamic (PD) parameters, including ACTH-stimulated and endogenous cortisol secretion measured in blood, saliva, and urine. Results will be used to inform endpoints and other parameters in future later studies in patients with Cushing's disease (CD) or other diseases of excess adrenocorticotropic hormone (ACTH), including Congenital Adrenal Hyperplasia (CAH) and Ectopic ACTH Syndrome (EAS).
(§2) MAD/Part 2: multiple ascending dose, randomized, placebo-controlled, double-blind; 2 planned and up to 4 total cohorts (n=36). In each cohort, 6 subjects will receive Compound 1, 3 subjects will receive the placebo. The doses will not exceed the doses in the SAD.
Starting on Day −1 until EOS (or ET), fasting pre-dose blood samples are collected <15 minutes prior to dosing for measurement of serum cortisol, A4, 17-OHP, aldosterone, ACTH(1 39), renin, and DHEAS. […] Cosyntropin is then administered (250 mcg in the “high dose” test; 1 mcg in the “low dose” test) to define time 0 of the ACTH-stimulation test. […]
At Screening and on Days 2, 3, 5, 6, 7, 8, 10, 11, and 12, fasting blood samples are collected for measurement of serum cortisol at 4 hours (15 minutes) post-dose (˜1200 hr). On Days in which the ACTH-stimulation test is conducted, this collection will be 120 min post-cosyntropin administration such that post-cosyntropin cortisol collection times are Time 30 minutes (5 minutes), Time 60 minutes (5 minutes), and Time 120 minutes (5 minutes).
A 24-hour blood biomarker profile is measured starting Day −1 until Day 1 pre-dose, Day 1 post-dose until Day 2 pre-dose, Day 4 post-dose until Day 5 pre-dose, and Day 9 post-dose until Day 10 pre-dose.

Series [2] addresses T1, MC4R (Homo sapiens, UniProt P32245).
T1 construct: purchased
Kind of series: Commercially available MC4R membrane binding assay. The following applies: greater than highest concentration tested. As to the method: The selectivity over other human MCR subtypes was evaluated using commercially available MC1R, MC3R, MC4R, and MCSR membrane binding assays. The half maximal inhibitory concentration in the binding assays (IC50) were determined to be greater than the highest concentration tested, or >10,000 nM, >1000 nM, >10,000 nM and >1000 nM for MC1R, MC3R, MC4R and MCSR, respectively. Compound 1 is >2900-fold selective for MC2R versus the other human MCRs.

Series [3] has as its system sodium channel (site 2). Kind of series: SafetyScreen panel: sodium channel site 2. Format: binding. The following applies: 10 μM. How it is done: Compound 1 was tested at Eurofins Panlabs Discovery Services Taiwan, Ltd. for evaluation in their SafetyScreen™ panel of assays. This included selectivity assays at 87 targets including G-protein coupled receptors, nuclear receptors, other cell surface receptors, ion channels, enzymes, and transporters.

Series [4] can be described thus: Phase 1 MAD study, pharmacokinetics, 40 mg daily over 10 days. Type of series: in vivo, human.
Description: as §1, §2
Pharmacokinetic results for Day 1 and Day 10 from the MAD study using a 40 mg daily dose of Compound 1 over 10 days are shown in FIG. 12. Data shown are mean±SEM. […] The mean half-life was ˜30 hours.

Molecules are shown by their SMILES.

T1 sequence (P32245 whole entry): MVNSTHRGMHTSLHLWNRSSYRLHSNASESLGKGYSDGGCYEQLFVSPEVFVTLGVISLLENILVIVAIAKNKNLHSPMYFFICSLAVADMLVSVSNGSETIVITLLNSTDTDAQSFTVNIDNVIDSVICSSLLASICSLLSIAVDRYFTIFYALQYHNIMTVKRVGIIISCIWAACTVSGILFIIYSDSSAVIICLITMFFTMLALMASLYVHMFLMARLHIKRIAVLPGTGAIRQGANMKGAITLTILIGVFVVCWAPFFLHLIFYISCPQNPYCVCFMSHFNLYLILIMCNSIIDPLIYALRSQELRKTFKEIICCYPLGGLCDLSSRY

Regarding `CCOc1ccccc1-c1ccc(N2CCN(C(=O)C3(C(F)(F)F)CCC3)C[C@H]2CC)c(C(=O)N[C@@H]2CN3CCC2CC3)n1` [Compound 1, 6-(2-ethoxyphenyl)-3-((R)-2-ethyl-4-(1-(trifluoromethyl)cyclobutane-1-carbonyl)piperazin-1-yl)-N—((S)-quinuclidin-3-yl)picolinamide], the “basal and ACTH-stimulated cortisol secretion” value in series [1] (4 h post-dose throughout the MAD study) was “suppressed basal and ACTH-stimulated cortisol secretion”. In series [1] (at 24 hours (before the next dose)), the basal unstimulated cortisol result was “suppression of basal unstimulated cortisol was not observed”. Also, the “basal and ACTH-stimulated cortisol levels” value in series [1] (high dose ACTH-stimulation test, after 10 days of dosing) is “suppressed basal and ACTH-stimulated cortisol levels”. The IC50 in series [2] is greater than 10 µM. Further, in series [3], the inhibition/activity was greater than 70%. In addition, the “accumulation with chronic dosing, higher than projected from SAD study results” value in series [4] (40 mg daily over 10 days) is reported as “approximately 2.4 fold”. Besides, the “Day 1 PK profile and exposures” value in series [4] (40 mg, Day 1) is recorded as “comparable to the 40 mg single dose from the SAD study”. Also, in series [4] (human, in vivo, oral, 40 mg daily over 10 days), the half-life is roughly 30 h.
